Measured values from patent US20210309657A1, “TRICYCLIC COMPOUNDS FOR THE TREATMENT AND PROPHYLAXIS OF BACTERIAL INFECTION” (Hoffmann-La Roche Inc., priority 2018, published 2021).
Converted amounts (≈) assume the structure as drawn. Where two headings read alike, the source gives them in different places.

How the values were obtained:
[1] = Lyophilisation solubility assay (LYSA); type: physicochemical; settings: thermodynamic from solid
Method: The solubility of compounds of present invention was assessed by LYSA assay. Samples were prepared in duplicate from 10 mM DMSO stock solutions ([…]) diluted in 30 μL pure DMSO. After evaporation of DMSO with a centrifugal vacuum evaporator, the residue was dissolved in 0.05 M phosphate buffer (150 μL, pH 6.5), which was stirred for one hour and shook for two hours. After one night, the solution was filtered using a microtiter filter plate. Then the filtrate and its 1/10 dilution were analyzed by HPLC-UV. In addition, a four-point calibration curve was prepared from the 10 mM stock solutions and used for the solubility determination of the compounds.

S. aureus (ATCC29213) = assay: 50% growth inhibitory concentration (IC50) determination assay, S. aureus; type: cell-based; settings: Staphylococcus aureus, growth inhibition, Iso-Sensitest broth, OD 600 nm over 16h, <0.098 = the detection limit
Method: (§1) The in vitro antimicrobial activity of the compounds against S. aureus (ATCC29213), K. pneumoniae (ATCC10031), and A. baumannii (ATCC17978), was determined according to the following procedure: The assay used a 10-points Iso-Sensitest broth medium to measure quantitatively the in vitro activity of the compounds against S. aureus ATCC29213, K. pneumoniae ATCC 10031, and A. baumannii ATCC17978. Stock compounds in DMSO were serially two-fold diluted (range from 50 to 0.097 μM final concentration) in 384 wells microtiter plates and inoculated with 49 μL the bacterial suspension in Iso-Sensitest broth medium to have a final cell concentration of ˜5×10^5 CFU/mL in a final volume/well of 50 μL/well. Microtiter plates were incubated at 35±2° C. Bacterial cell growth was determined with the measurement of optical density at λ=600 nm each 20 minutes over a time course of 16h. Growth inhibition was calculated during the logarithmic growth of the bacterial cells with determination of the concentration inhibiting 50% (IC50) of the growth. Compounds of the present invention were tested for their concentration inhibiting 50% (IC50). The data of IC50 over S. aureus (ATCC29213), K. pneumoniae (ATCC10031), and A. baumannii (ATCC17978) are illustrated in Table 4.

[2] = tested on: K. pneumoniae (ATCC10031); assay: 50% growth inhibitory concentration (IC50) determination assay, K. pneumoniae; type: cell-based; settings: Klebsiella pneumoniae, growth inhibition, Iso-Sensitest broth, OD 600 nm over 16h, <0.098 = the detection limit
Method: as §1

A. baumannii (ATCC17978) = assay: 50% growth inhibitory concentration (IC50) determination assay, A. baumannii; type: cell-based; settings: Acinetobacter baumannii, growth inhibition, Iso-Sensitest broth, OD 600 nm over 16h, <0.098 = the detection limit
Method: as §1

[3] = aqueous buffer, 0.05 M phosphate buffer, pH 6.5, HPLC-UV, <1.0 = the detection limit, read-out: Lysa

SMILES | solubility thermodynamic [1, 3] [µg/mL] | IC50 (S. aureus (ATCC29213)) [µM] | IC50 [2] [µM] | IC50 (A. baumannii (ATCC17978)) [µM] | solubility thermodynamic ([1]; pH 6.5, aqueous buffer) [µg/mL]
CCNc1cc(Cl)cc2c1[nH]c1ncc(-c3cncc(C#N)c3)c(N3CCC(N)C3)c12 (stereo not drawn) [Example 1.03, 5-[4-(3-Aminopyrrolidin-1-yl)-6-chloro-8-(ethylamino)-9H-pyrido[2,3-b]indol-3-yl]pyridine-3-carbonitrile] | 32.7 (≈ 75.7 µM) |  |  |  | 
CNc1cc(F)c(F)c2c1[nH]c1ncc(-c3cncc(C#N)c3)c(N3CCC[C@@H](CN)C3)c12 [Example 1.40, 5-[4-[(3S)-3-(Aminomethyl)-1-piperidyl]-5,6-difluoro-8-(methylamino)-9H-pyrido[2,3-b]indol-3-yl]pyridine-3-carbonitrile] | 49 (≈ 109 µM) |  |  |  | 
CNc1cc(F)c(F)c2c1[nH]c1ncc(-c3cnc4ccnn4c3)c(N(C)C)c12 [Example 1.62, 5,6-Difluoro-N4,N4,N8-trimethyl-3-pyrazolo[1,5-a]pyrimidin-6-yl-9H-pyrido[2,3-b]indole-4,8-diamine] |  | 1.38 | 0.238 | < 0.098 | 
CNc1cc(F)c(F)c2c1[nH]c1ncc(-c3cncc(C#N)c3)c(N3CC4CC(C3)N4)c12 [Example 1.44, 5-(4-(3,6-Diazabicyclo[3.1.1]heptan-3-yl)-5,6-difluoro-8-(methylamino)-9H-pyrido[2,3-b]indol-3-yl)nicotinonitrile] |  |  |  |  | 270 (≈ 626 µM)
CNc1cc(F)c(F)c2c1[nH]c1ncc(-c3cnc(OC)nc3)c(N3CCCC3CN)c12 (stereo not drawn) [Example 1.37, 4-[2-(Aminomethyl)pyrrolidin-1-yl]-5,6-difluoro-3-(2-methoxypyrimidin-5-yl)-N-methyl-9H-pyrido[2,3-b]indol-8-amine] | 545 (≈ 1240 µM) |  |  |  | 
CNc1cc(F)cc2c1[nH]c1ncc(-c3cnc(OC)nc3)c(N3CC(CN)C(F)(F)C3)c12 (stereo not drawn) [Example 3.02, 4-[4-(aminomethyl)-3,3-difluoro-pyrrolidin-1-yl]-6-fluoro-3-(2-methoxypyrimidin-5-yl)-N-methyl-9H-pyrido[2,3-b]indol-8-amine] | 196 (≈ 428 µM) |  |  |  | 
CNc1cc(F)c(F)c2c1[nH]c1ncc(-c3cnc(OC)nc3)c(N3CCC(C)(CN)C3)c12 (stereo not drawn) [Example 1.36, 4-[3-(Aminomethyl)-3-methyl-pyrrolidin-1-yl]-5,6-difluoro-3-(2-methoxypyrimidin-5-yl)-N-methyl-9H-pyrido[2,3-b]indol-8-amine] | 140 (≈ 309 µM) |  |  |  | 
CNc1cc(F)c(F)c2c1[nH]c1ncc(-c3cncc(C#N)c3)c(N3CCC4(C[C@@H]4N)C3)c12 (stereo in doubt) [Example 1.29, 5-[4-[Trans-2-amino-5-azaspiro[2.4]heptan-5-yl]-5,6-difluoro-8-(methylamino)-9H-pyrido[2,3-b]indol-3-yl]pyridine-3-carbonitrile] | 16 (≈ 35.9 µM) | 1.24 |  | 0.1 | 
CNc1cc(F)c(F)c2c1[nH]c1ncc(-c3cnc(OC)nc3)c(N3CCC[C@@H](CN)C3)c12 [Example 1.25, 4-[(3S)-3-(Aminomethyl)-1-piperidyl]-5,6-difluoro-3-(2-methoxypyrimidin-5-yl)-N-methyl-9H-pyrido[2,3-b]indol-8-amine] | 194 (≈ 428 µM) |  |  |  | 
CNc1cc(F)c(F)c2c1[nH]c1ncc(-c3cncc(C#N)c3)c(N3CCC4(C[C@H]4N)C3)c12 (stereo in doubt) [Example 1.30, 5-[4-[Cis-2-amino-5-azaspiro[2.4]heptan-5-yl]-5,6-difluoro-8-(methylamino)-9H-pyrido[2,3-b]indol-3-yl]pyridine-3-carbonitrile] |  | 1.01 |  | < 0.098 | 
CCNc1cc(F)cc2c1[nH]c1ncc(-c3cncc(C#N)c3)c(N3CCCC3CN)c12 (stereo not drawn) [Example 1.06, 5-[4-[2-(Aminomethyl)pyrrolidin-1-yl]-8-(ethylamino)-6-fluoro-9H-pyrido[2,3-b]indol-3-yl]pyridine-3-carbonitrile] | > 625 |  |  |  | 
CNc1cc(F)cc2c1[nH]c1ncc(-c3cncc(C#N)c3)c(N3CC[C@@H](N)C3)c12 [Example 1.01, 5-[4-[(3R)-3-Aminopyrrolidin-1-yl]-6-fluoro-8-(methylamino)-9H-pyrido[2,3-b]indol-3-yl]pyridine-3-carbonitrile] | 59 (≈ 147 µM) |  |  |  | 
CCNc1cc(F)cc2c1[nH]c1ncc(-c3cncc(C#N)c3)c(N3CCC(F)(CN)C3)c12 (stereo not drawn) [Example 1.10, 5-[4-[3-(Aminomethyl)-3-fluoro-pyrrolidin-1-yl]-8-(ethylamino)-6-fluoro-9H-pyrido[2,3-b]indol-3-yl]pyridine-3-carbonitrile] |  | 0.312 | < 0.098 | < 0.098 | 
CNc1cc(F)c(F)c2c1[nH]c1ncc(-c3cnc4ccnn4c3)c(N3CC[C@H]4CN(C)C[C@H]43)c12 (relative stereo) [Example 1.50, 4-[Cis-5-methyl-2,3,3a,4,6,6a-hexahydropyrrolo[2,3-c]pyrrol-1-yl]-5,6-difluoro-N-methyl-3-pyrazolo[1,5-a]pyrimidin-6-yl-9H-pyrido[2,3-b]indol-8-amine] |  | 0.369 | < 0.098 | < 0.098 | 
CNc1cc(F)cc2c1[nH]c1ncc(-c3cncc(C#N)c3)c(N3C4CNCC3C4)c12 [Example 1.60, 5-(4-(3,6-Diazabicyclo[3.1.1]heptan-6-yl)-6-fluoro-8-(methylamino)-9H-pyrido[2,3-b]indol-3-yl)nicotinonitrile] |  | 0.842 |  |  | 53 (≈ 128 µM)
CCNc1cc(F)cc2c1[nH]c1ncc(-c3cncc(C#N)c3)c(N3CCC4(C[C@H]4N)C3)c12 (stereo in doubt) [Example 1.11, 5-[8-(Ethylamino)-6-fluoro-4-[cis-2-amino-5-azaspiro[2.4]heptan-5-yl]-9H-pyrido[2,3-b]indol-3-yl]pyridine-3-carbonitrile] |  | 0.863 | < 0.098 | < 0.098 | 
CNc1cc(F)c(F)c2c1[nH]c1ncc(-c3cncc(C#N)c3)c(N3C4CNCC3C4)c12 [Example 1.58, 5-(4-(3,6-Diazabicyclo[3.1.1]heptan-6-yl)-5,6-difluoro-8-(methylamino)-9H-pyrido[2,3-b]indol-3-yl)nicotinonitrile] |  | 0.231 |  | 0.182 | 320 (≈ 742 µM)
CCNc1cc(F)cc2c1[nH]c1ncc(-c3cnc(C4(C(=O)O)CC4)nc3)c(N(C)C)c12 [Example 2.01, 1-[5-[4-(Dimethylamino)-8-(ethylamino)-6-fluoro-9H-pyrido[2,3-b]indol-3-yl]pyrimidin-2-yl]cyclopropanecarboxylic acid] | 129 (≈ 297 µM) |  |  |  | 
CCNc1cc(F)cc2c1[nH]c1ncc(-c3cnc(OC)nc3)c(N3CCC[C@@H](CN)C3)c12 [Example 1.52, (S)-4-(3-(Aminomethyl)piperidin-1-yl)-N-ethyl-6-fluoro-3-(2-methoxypyrimidin-5-yl)-9H-pyrido[2,3-b]indol-8-amine] |  | 0.993 | < 0.098 | < 0.098 | 
CNc1cc(F)c(F)c2c1[nH]c1ncc(-c3cncc(C#N)c3)c(N3CCCC3CN)c12 (stereo not drawn) [Example 1.38, 5-[4-[2-(Aminomethyl)pyrrolidin-1-yl]-5,6-difluoro-8-(methylamino)-9H-pyrido[2,3-b]indol-3-yl]pyridine-3-carbonitrile] | > 610 |  |  |  | 
CNc1cc(F)cc2c1[nH]c1ncc(-c3cncc(C#N)c3)c(N3CCC(F)(CN)C3)c12 (stereo not drawn) [Example 1.23, 5-[4-[3-(Aminomethyl)-3-fluoro-pyrrolidin-1-yl]-6-fluoro-8-(methylamino)-9H-pyrido[2,3-b]indol-3-yl]pyridine-3-carbonitrile] | 30 (≈ 69.2 µM) |  |  |  | 
CNc1cc(F)c(F)c2c1[nH]c1ncc(-c3cncc(C#N)c3)c(N3CCC4(CCC4N)C3)c12 (stereo not drawn) [Example 1.49, 5-(4-(1-Amino-6-azaspiro[3.4]octan-6-yl)-5,6-difluoro-8-(methylamino)-9H-pyrido[2,3-b]indol-3-yl)nicotinonitrile] |  | 1.31 | < 0.098 | 0.143 | 
CNc1cc(F)c(F)c2c1[nH]c1ncc(-c3cnc(OC)nc3)c(N3CCOC(CN)C3)c12 (stereo not drawn) [Example 1.33, 4-[2-(Aminomethyl)morpholin-4-yl]-5,6-difluoro-3-(2-methoxypyrimidin-5-yl)-N-methyl-9H-pyrido[2,3-b]indol-8-amine] | 475 (≈ 1040 µM) |  |  |  | 
CNc1cc(F)c(F)c2c1[nH]c1ncc(-c3cncc(C#N)c3)c(N3CCCC(CN)C3)c12 (stereo not drawn) [Example 1.21, 5-[4-[3-(Aminomethyl)-1-piperidyl]-5,6-difluoro-8-(methylamino)-9H-pyrido[2,3-b]indol-3-yl]pyridine-3-carbonitrile] | 44 (≈ 98.3 µM) |  |  |  | 
